Source: ChEMBL document CHEMBL1138730, “The synthesis and evaluation of [2.2.1]-bicycloazahydantoins as androgen receptor antagonists” (Bioorg Med Chem Lett, 2004)

Experiments:
Androgen receptor [1] = molecular target: T1, Androgen receptor (Homo sapiens, UniProt P10275); assay: Displacement of [3H]DHT from androgen receptor of human MDA-453 cells
T1 sequence (P10275 whole entry): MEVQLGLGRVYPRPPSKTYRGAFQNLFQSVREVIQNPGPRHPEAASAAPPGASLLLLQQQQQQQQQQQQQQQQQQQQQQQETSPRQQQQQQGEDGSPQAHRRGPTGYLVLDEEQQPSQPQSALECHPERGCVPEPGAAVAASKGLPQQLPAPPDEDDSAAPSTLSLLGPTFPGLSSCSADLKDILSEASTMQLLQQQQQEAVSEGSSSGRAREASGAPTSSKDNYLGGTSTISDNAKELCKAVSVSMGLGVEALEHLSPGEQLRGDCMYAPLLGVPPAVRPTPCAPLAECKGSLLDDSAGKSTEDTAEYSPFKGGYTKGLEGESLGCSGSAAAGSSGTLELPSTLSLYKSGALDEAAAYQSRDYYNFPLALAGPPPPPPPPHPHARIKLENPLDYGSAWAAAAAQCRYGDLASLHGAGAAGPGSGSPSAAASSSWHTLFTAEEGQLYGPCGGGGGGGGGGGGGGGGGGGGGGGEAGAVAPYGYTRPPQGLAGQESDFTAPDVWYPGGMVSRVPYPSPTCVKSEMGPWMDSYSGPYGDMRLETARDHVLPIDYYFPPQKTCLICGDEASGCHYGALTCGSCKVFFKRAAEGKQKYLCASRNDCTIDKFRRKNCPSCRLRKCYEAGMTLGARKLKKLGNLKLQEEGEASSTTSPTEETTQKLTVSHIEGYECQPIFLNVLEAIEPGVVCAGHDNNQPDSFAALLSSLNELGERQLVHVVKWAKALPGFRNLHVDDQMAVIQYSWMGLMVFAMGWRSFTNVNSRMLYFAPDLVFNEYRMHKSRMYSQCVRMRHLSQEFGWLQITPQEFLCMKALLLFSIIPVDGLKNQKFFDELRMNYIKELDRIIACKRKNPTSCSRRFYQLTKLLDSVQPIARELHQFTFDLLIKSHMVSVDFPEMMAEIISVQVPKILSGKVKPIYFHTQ

Androgen receptor [2] = molecular target: Androgen receptor (Homo sapiens, UniProt P10275); conditions: lncap
Description: In vitro antagonistic activity against mutant androgen receptor of LNCap cells

Androgen receptor [3] = molecular target: T1, Androgen receptor
Description: In vitro antagonistic activity against androgen receptor of MDA-453 cells

SMILES	Ki (Androgen receptor [1]) [nM]	IC50 (Androgen receptor [2]) [µM]	IC50 (Androgen receptor [3]) [nM]
CC(C)(C)OC(=O)N1C[C@@H]2C[C@H]1[C@@H]1C(=O)N(c3ccc(C#N)c(C(F)(F)F)c3)C(=O)N21	40	4.38	770
CC(C)(C)OC(=O)N1C[C@@H]2C[C@H]1[C@@H]1C(=O)N(c3ccc([N+](=O)[O-])c4ccccc34)C(=O)N21	60	4.43	3320
CC(C)(C)OC(=O)N1C[C@H]2C[C@@H]1[C@H]1C(=O)N(c3ccc([N+](=O)[O-])cc3)C(=O)N21	230	2.39	250
O=C1[C@H]2[C@@H]3C[C@@H](CN3C(=O)c3ccccc3)N2C(=O)N1c1ccc([N+](=O)[O-])cc1	10	2.54	> 5000
N#Cc1ccc(N2C(=O)[C@H]3[C@@H]4C[C@@H](CN4C(=O)Oc4ccc(F)cc4)N3C2=O)cc1C(F)(F)F	10	3.92	200
CC(C)(C)OC(=O)N1C[C@H]2C[C@@H]1[C@H]1C(=O)N(c3ccc(C#N)c(C(F)(F)F)c3)C(=O)N21	> 5000	> 5	> 5000
CC(C)(C)OC(=O)N1C[C@@H]2C[C@H]1[C@@H]1C(=O)N(c3ccc(C#N)cc3)C(=O)N21	240	4.97	2540
CC(C)(C)OC(=O)N1C[C@@H]2C[C@H]1[C@H]1C(=O)N(c3ccc(C#N)c(C(F)(F)F)c3)C(=O)N21	180	> 5	640
O=C1[C@H]2[C@@H]3C[C@@H](CN3C(=O)Oc3ccc(F)cc3)N2C(=O)N1c1ccc([N+](=O)[O-])c2ccccc12	10	30	340
N#Cc1ccc(N2C(=O)[C@H]3[C@@H]4C[C@@H](CN4C(=O)Oc4ccc(F)cc4)N3C2=O)c2ccccc12	40	1.87	580
O=C1[C@@H]2[C@@H]3CC[C@@H](C3)[C@@H]2C(=O)N1c1ccc([N+](=O)[O-])c(C(F)(F)F)c1	5	> 5	10
CC(C)(C)OC(=O)N1C[C@@H]2C[C@H]1[C@H]1C(=O)N(c3ccc([N+](=O)[O-])c4ccccc34)C(=O)N21		5.86	1330
CCCCc1ccc(C(=O)N2C[C@@H]3C[C@H]2[C@@H]2C(=O)N(c4ccc([N+](=O)[O-])cc4)C(=O)N32)cc1	70	4.75	60
CCCCc1ccc(C(=O)N2C[C@@H]3C[C@H]2[C@@H]2C(=O)N(c4ccc(C#N)cc4)C(=O)N32)cc1	100	6.8	580
N#Cc1ccc(N2C(=O)[C@H]3[C@@H]4C[C@@H](CN4C(=O)c4ccccc4)N3C2=O)cc1C(F)(F)F	120	2.6	300
CC(C)(C)OC(=O)N1C[C@@H]2C[C@H]1[C@H]1C(=O)N(c3ccc(C#N)cc3)C(=O)N21	190	3.51	> 5000
O=C1[C@H]2[C@H]3CC[C@H](C3)N2C(=O)N1c1ccc([N+](=O)[O-])c2ccccc12	1	> 5	1300
CC(C)(C)OC(=O)N1C[C@@H]2C[C@H]1[C@]1(C)C(=O)N(c3ccc(C#N)c(C(F)(F)F)c3)C(=O)N21		10.4	780
